Reference: US20040259888A1, “Novel 4-aminofuropyrimidines and the use thereof” (priority 2001, published 2004)
Counter-ions that a name gives are not always drawn.

Assays:
[1] = target: human recombinant adenosine kinase (Homo sapiens, UniProt P55263); experiment: Inhibition of human recombinant adenosine kinase; assay type: biochemical; conditions: 14C-adenosine substrate, 0.5 mM ATP, 37° C., 20 min; read-out: Adenosine kinase inhibition (in vitro): IC50
Method: 1. Inhibition of Human Recombinant Adenosine Kinase
The test is carried out on 96-well filter plates (DE81 from Millipore, DEAE cellulose, 0.65 μm). The test buffer contains 50 mM tris/HCl pH 8.0, 10 mM DTT and 1 mM MgCl2; immediately prior to the start of the test, ATP is added in a concentration of 0.5 mM. The substrate used is ^14C-adenosine, diluted 1:30 in cold adenosine; the final concentration of the cold adenosine is 4×10^−6 M; the amount of ^14C-adenosine is chosen such that, at a volume of 10 μl, an activity of 0.5 kBq (=30 000 decays per minute) is present per well of the filter plate. The substances to be tested are dissolved in DMSO in a concentration of 10^−2 M. Further dilutions are carried out using water.
When carrying out the test, initially 80 μl of buffer are initially charged into each well. The test substances, the substrate adenosine and finally human recombinant adenosine kinase (Mathews J. J. et al., Biochemistry (1998) 37, 15607-15620) in test buffer pH 7.4 are added successively, in each case in a volume of 10 μl. The adenosine kinase concentration is chosen such that at most 30% of the total amount of adenosine are converted. The plates are then incubated at 37° C. for 20 min. The reaction is then stopped by filtration with suction. The filters are washed in each case once with ice-cold wash buffer (15 mM Tris/HCl pH 8.5) and ethanol. The plate is dried at 37° C. (about 15 min). 50 μl of scintillation solution are then pipetted into each well, and the ^14C activity is determined in a MicroBeta counter.
The inhibition of the enzyme activity by the substances tested is determined after substration of the blank value (no added enzyme) in comparison to the uninhibited enzyme (100% value).

Sequence of human recombinant adenosine kinase (P55263 1-345 isoform P55263-2): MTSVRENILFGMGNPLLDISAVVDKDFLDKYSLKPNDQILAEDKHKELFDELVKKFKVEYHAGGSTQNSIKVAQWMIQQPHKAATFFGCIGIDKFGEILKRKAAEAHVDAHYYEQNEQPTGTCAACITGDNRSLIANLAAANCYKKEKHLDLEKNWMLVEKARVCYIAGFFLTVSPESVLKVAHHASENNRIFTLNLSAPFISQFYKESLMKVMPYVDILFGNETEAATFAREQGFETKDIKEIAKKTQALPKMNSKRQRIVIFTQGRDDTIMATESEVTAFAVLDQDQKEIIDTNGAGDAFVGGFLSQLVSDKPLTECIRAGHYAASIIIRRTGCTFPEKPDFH

melting point	IC50 [1]	Compound
210 to 212 °C		COc1ccc(-c2oc3ncnc(N4CCN(c5ccccn5)CC4)c3c2-c2ccc(F)cc2)cc1OC [Example 114]
180 to 182 °C		COc1ccc(-c2oc3ncnc(NC4CCCCCC4)c3c2-c2ccc(F)cc2)cc1OC [Example 115]
211 to 213 °C		COc1ccc(-c2oc3ncnc(N4CCOCC4)c3c2-c2ccc(F)cc2)cc1OC [Example 116]
208 to 209 °C		CN1CCN(c2ncnc3oc(-c4ccc(NC5CCCCC5)nc4)c(-c4ccccc4)c23)CC1 [Example 125]
152 to 153 °C		COc1cc(OC)cc(-c2oc3ncnc(NCCc4cccs4)c3c2-c2ccccc2)c1 [Example 134]
153 to 154 °C		COc1cc(OC)cc(-c2oc3ncnc(NC4CCCC4)c3c2-c2ccccc2)c1 [Example 135]
148 to 150 °C		COc1ccc(-c2oc3ncnc(N4CCCCCC4)c3c2-c2ccc(F)cc2)cc1OC [Example 141]
> 250 °C		COc1ccc(-c2oc3ncnc(N4CCC(C(N)=O)CC4)c3c2-c2ccccc2)cc1OC [Example 154]
132 to 134 °C		COc1cc(OC)cc(-c2oc3ncnc(N(C)CCO)c3c2-c2ccccc2)c1 [Example 157]
137 to 139 °C		COc1ccc(-c2oc3ncnc(N(CCO)CCO)c3c2-c2ccccc2)cc1OC [Example 159]
> 250 °C		COc1ccc(-c2oc3ncnc(Nc4ccncc4)c3c2-c2ccccc2)cc1OC [Example 172]
176 to 177 °C		CN1CCN(c2ccc(-c3oc4ncnc(N5CCN(C)CC5)c4c3-c3ccccc3)cn2)CC1 [Example 173]
156 to 158 °C		OCCN(Cc1ccccc1)c1ncnc2oc(-c3ccc(F)cc3)c(-c3ccc(F)cc3)c12 [Example 177]
	30 nM	OCCNc1ccc(-c2oc3ncnc(N4CCC(O)CC4)c3c2-c2ccc(F)cc2)cn1 [Example 193, 1-(5-(4-Fluorophenyl)-6-{6-[(2-hydroxyethyl)amino]-3-pyridinyl]furo[2,3-d]pyrimidin-4-yl)-4-piperidinol]
	20 nM	OC1CCN(c2ccc(-c3oc4ncnc(N5CCC(O)CC5)c4c3-c3ccc(F)cc3)cn2)CC1 [Example 198, 1-{5-[5-(4-Fluorophenyl)-4-(4-hydroxy-1-piperidinyl)furo[2,3-d]pyrimidin-6-yl]-2-pyridinyl}-4-piperidinol]
	20 nM	O=C(Nc1ccc(-c2oc3ncnc(N4CCC(O)CC4)c3c2-c2ccc(F)cc2)cc1)[C@@H]1CCCN1 [Example 201, N-{4-[5-Fluorophenyl)-4-(4-hydroxy-1-piperidinyl)furo[2.3-d]pyrimidin-6-yl]-phenyl}-L-prolinamide Hydrochloride]
	5 nM	CC(=O)N1CCN(c2ccc(-c3oc4ncnc(N5CCC(O)CC5)c4c3-c3ccc(F)cc3)cn2)CC1 [Example 255]

The next lines start with the compound.

Compound	melting point	IC50 [1]
CN1CCC(N(C)c2ncnc3oc(-c4ccc(F)cc4)c(-c4ccc(F)cc4)c23)CC1	180 to 181 °C	
COc1cc(OC)cc(-c2oc3ncnc(NC4CCCCCC4)c3c2-c2ccccc2)c1 [Example 1, N-Cycloheptyl-6-(3,5-dimethoxyphenyl)-5-phenylfuro[2,3-d]pyrimidine-4-amine]	151 to 152 °C	
COc1cc(OC)cc(-c2oc3ncnc(N4CCCCC4)c3c2-c2ccccc2)c1 [Example 2, 6-(3,5-Dimethoxyphenyl)-5-phenyl-4-(1-piperidinyl)furo[2,3-d]pyrimidine]	152 to 153 °C	
CN1CCN(c2ncnc3oc(-c4ccc([N+](=O)[O-])cc4)c(-c4ccc(F)cc4)c23)CC1 [Example 3, 5-(4-Fluorophenyl)-4-(4-methyl-1-piperazinyl)-6-(4-nitrophenyl)furo[2,3-d]pyrimidine]	> 250 °C	
CN1CCN(c2ncnc3oc(-c4ccc(NC(=O)CN)cc4)c(-c4ccc(F)cc4)c23)CC1 [Example 6, N-1-{4-[5-(4-Fluorophenyl)-4-(4-methyl-1-piperazinyl)furo[2,3-d]pyrimidin-6-yl]phenylgylcinamidedihydrochloride]		20 nM
CN1CCN(c2ncnc3oc(-c4ccc(N5CCOCC5)nc4)c(-c4ccccc4)c23)CC1 [Example 7, 4-(4-Methyl-1-piperazinyl)-6-[N-(4-morpholinyl)-3-pyridinyl]-5-phenylfuro[2,3-d]pyrimidine]	255 to 257 °C	
CN1CCN(c2ccc(-c3oc4ncnc(N5CCC(O)CC5)c4c3-c3ccccc3)cn2)CC1 [Example 10, 1-{6-[6-(4-Methyl-1-piperazinyl)-3-pyridinyl]-5-phenylfuro[2,3-d]pyrimidin-4-yl]-4-piperidinol]		10 nM
CC(C)CNc1ncnc2oc(-c3ccc(C(=O)N4CCN(C)CC4)cc3)c(-c3ccccc3)c12 [Example 13, N-Isobutyl-6-{4-[(4-methyl-1-piperazinyl)carbonyl]phenyl}-5-phenylfuro[2,3-d]-pyrimidine-4-amine]		100 nM
CN1CCN(c2ncnc3oc(-c4ccc(N5CCC5=O)cc4)c(-c4ccc(F)cc4)c23)CC1 [Example 24, 1-{4-[5-(4-Fluorophenyl)-4-(4-methyl-1-piperazinyl)furo[2,3-d]pyrimidin-6-yl]phenyl}-2-azetidinone]		30 nM
COc1ccc(-c2oc3ncnc(N(C)C4CCCCCC4)c3c2-c2ccc(OC)cc2)cc1 [Example 29, N-Cycloheptyl-5,6-bis(4-methoxyphenyl)-N-methylfuro[2,3-d]pyrimidine-4-amine]		80 nM
CN1CCN(c2ncnc3oc(-c4ccc(NC(=O)c5cccnc5)cc4)c(-c4ccccc4)c23)CC1 [Example 32, N-{4-[4-(4-Methyl-1-piperazinyl)-5-phenylfuro[2,3-d]pyrimidin-6-yl]phenyl}-nicotinamide]		30 nM
COc1ccc(-c2oc3ncnc(N4CCN(CCO)CC4)c3c2-c2ccc(F)cc2)cc1OC [Example 39]	156 to 158 °C	
O=C(Nc1ccc(-c2oc3ncnc(N4CCOCC4)c3c2-c2ccc(F)cc2)cc1)c1ccc([N+](=O)[O-])cc1 [Example 47]	> 250 °C	
CN1CCN(c2ncnc3oc(-c4ccc(NC(=O)c5cccc([N+](=O)[O-])c5)cc4)c(-c4ccc(F)cc4)c23)CC1 [Example 48]	> 250 °C	
CN1CCN(c2ncnc3oc(-c4ccc(NC(=O)C5CCCO5)cc4)c(-c4ccc(F)cc4)c23)CC1 (centres unmarked) [Example 49]	> 250 °C	
COc1ccc(-c2oc3ncnc(N4CCC(C(N)=O)CC4)c3c2-c2ccc(F)cc2)cc1OC [Example 51]	235 to 237 °C	
COc1ccc(-c2oc3ncnc(N4CCN(C)CC4)c3c2-c2ccc(F)cc2)cc1OC [Example 53]	168 to 169 °C	

Compound	melting point	IC50 [1]
COc1ccc(C(=O)Nc2ccc(-c3oc4ncnc(N5CCN(C)CC5)c4c3-c3ccc(F)cc3)cc2)cc1 [Example 54]	252 to 253 °C	
CC(=O)NC(C)C(=O)Nc1ccc(-c2oc3ncnc(N4CCOCC4)c3c2-c2ccc(F)cc2)cc1 (centres unmarked) [Example 55]	250 to 252 °C	
CCN(CC)c1ncnc2oc(-c3ccc(OC)c(OC)c3)c(-c3ccccc3)c12 [Example 63]	125 to 126 °C	
COc1ccc(-c2oc3ncnc(N4CCN(C(C)C)CC4)c3c2-c2ccc(F)cc2)cc1OC [Example 64]	180 to 181 °C	
COc1cc(OC)cc(-c2oc3ncnc(NC4CCCCCC4)c3c2-c2ccc(F)cc2)c1 [Example 69]	170 to 172 °C	
CN1CCN(c2ncnc3oc(-c4ccc(NC(=O)c5cccnc5)cc4)c(-c4ccc(F)cc4)c23)CC1 [Example 70]	> 250 °C	
O=C(Nc1ccc(-c2oc3ncnc(N4CCOCC4)c3c2-c2ccc(F)cc2)cc1)C1CCCO1 (centres unmarked) [Example 71]	201 to 202 °C	
CN1CCN(c2ncnc3oc(-c4ccc(NCc5ccccc5)cc4)c(-c4ccccc4)c23)CC1 [Example 75]	161 to 163 °C	
COc1cc(OC)cc(-c2oc3ncnc(N4CCN(CCO)CC4)c3c2-c2ccc(F)cc2)c1 [Example 83]	161 to 163 °C	
COC(=O)c1ccc(C(=O)Nc2ccc(-c3oc4ncnc(N5CCN(C)CC5)c4c3-c3ccc(F)cc3)cc2)cc1 [Example 88]	> 250 °C	
CN1CCN(c2ncnc3oc(-c4ccc(Cl)nc4)c(-c4ccccc4)c23)CC1 [Example 94]	173 to 175 °C	
COc1cc(OC)cc(-c2oc3ncnc(NC(CO)CO)c3c2-c2ccccc2)c1 [Example 108]	131 to 133 °C	
COc1ccc(-c2c(-c3ccc(OC)c(OC)c3)oc3ncnc(NC4CCCCC4)c23)cc1 [Example 109]	181 to 182 °C	
COc1ccc(-c2oc3ncnc(N4CCC(O)CC4)c3c2-c2ccccc2)cc1OC [Example 111]	176 to 178 °C	
COc1ccc(-c2oc3ncnc(N4CCN(CCO)CC4)c3c2-c2ccccc2)cc1OC [Example 112]	188 to 189 °C	
COc1cc(OC)cc(-c2oc3ncnc(N4CCN(C)CC4)c3c2-c2ccccc2)c1 [Example 113]	156 to 157 °C	
